Reference: PubChem BioAssay AID1963977 (Molecular Pharmacology Branch, DTP, NCI, 2024)

Tested on: 624824-186-R-J3-PDC multicell spheroids, viability
Assay: Anticancer human tumor 624824-186-R-J3-PDC patient-derived colon adenocarcinoma cell line growth inhibition [PI3K]
Conditions: for IC50: curve of first compound; for viability, T/C: stronger effect = lower value
In short: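 Viability of mixed-cell spheroids was determined after exposure to pairwise combinations, one partner being inavolisib, alpelisib, duvelisib or copanlisib. Highest tested concentration matched clinical Cmax where known and 10 microM where not, descending in half-log steps.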

[1] = second compound 0.00316 µM, first compound 0.0316 µM
[2] = second compound 0.00316 µM, first compound 0.1 µM
[3] = second compound 0.00316 µM, first compound 0.316 µM
[4] = second compound 0.00316 µM, first compound 1 µM
[5] = second compound 0.01 µM, first compound 0.0316 µM
[6] = second compound 0.01 µM, first compound 0.1 µM
[7] = second compound 0.01 µM, first compound 0.316 µM
[8] = second compound 0.01 µM, first compound 1 µM
[9] = second compound 0.0316 µM, first compound 0.0316 µM
[10] = second compound 0.0316 µM, first compound 0.1 µM
[11] = second compound 0.0316 µM, first compound 0.316 µM
[12] = second compound 0.0316 µM, first compound 1 µM
[13] = second compound 0.1 µM, first compound 0.0316 µM
[14] = second compound 0.1 µM, first compound 0.1 µM
[15] = second compound 0.1 µM, first compound 0.316 µM
[16] = second compound 0.1 µM, first compound 1 µM
[17] = second compound 0.316 µM, first compound 0.0316 µM
[18] = second compound 0.316 µM, first compound 0.1 µM
[19] = second compound 0.316 µM, first compound 0.316 µM
[20] = second compound 0.316 µM, first compound 1 µM
[21] = second compound 1 µM, first compound 0.0316 µM
[22] = second compound 1 µM, first compound 0.1 µM
[23] = second compound 1 µM, first compound 0.316 µM
[24] = second compound 1 µM, first compound 1 µM
[25] = second compound 0.0316 µM, first compound 3.16 µM
[26] = second compound 0.0316 µM, first compound 10 µM
[27] = second compound 0.1 µM, first compound 3.16 µM
[28] = second compound 0.1 µM, first compound 10 µM
[29] = second compound 0.316 µM, first compound 3.16 µM
[30] = second compound 0.316 µM, first compound 10 µM
[31] = second compound 1 µM, first compound 3.16 µM
[32] = second compound 1 µM, first compound 10 µM
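Also: spheroids exposed to agents for seven days before luminescence read.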
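For viability, T/C in this document: luminescent signal used as a stand-in for spheroid viability; percent viability relative to DMSO vehicle control wells taken as 100%.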

## CCN1CCN(Cc2ccc(Nc3ncc(F)c(-c4cc(F)c5nc(C)n(C(C)C)c5c4)n3)nc2)CC1 + CC(Nc1ccc2c(c1)OCCn1cc(N3C(=O)OCC3C(F)F)nc1-2)C(N)=O
Second compound 0.00316 µM
  IC50: > 1 µM
Second compound 0.01 µM
  IC50: > 1 µM
Second compound 0.0316 µM
  IC50: > 1 µM
Second compound 0.1 µM
  IC50: > 1 µM
Second compound 0.316 µM
  IC50: > 1 µM
Second compound 1 µM
  IC50: 0.287 µM
Second compound 0.00316 µM, first compound 0.00316 µM
  viability, T/C: 99.2%
Second compound 0.00316 µM, first compound 0.01 µM
  viability, T/C: 96.2%
[1]
  viability, T/C: 106%
[2]
  viability, T/C: 101%
[3]
  viability, T/C: 93.2%
[4]
  viability, T/C: 97.1%
Second compound 0.01 µM, first compound 0.00316 µM
  viability, T/C: 101%
Second compound 0.01 µM, first compound 0.01 µM
  viability, T/C: 89%
[5]
  viability, T/C: 114%
[6]
  viability, T/C: 102%
[7]
  viability, T/C: 104%
[8]
  viability, T/C: 90%
Second compound 0.0316 µM, first compound 0.00316 µM
  viability, T/C: 101%
Second compound 0.0316 µM, first compound 0.01 µM
  viability, T/C: 97.8%
[9]
  viability, T/C: 102%
[10]
  viability, T/C: 105%
[11]
  viability, T/C: 89.6%
[12]
  viability, T/C: 76.3%
Second compound 0.1 µM, first compound 0.00316 µM
  viability, T/C: 94.6%
Second compound 0.1 µM, first compound 0.01 µM
  viability, T/C: 96%
[13]
  viability, T/C: 103%
[14]
  viability, T/C: 105%
[15]
  viability, T/C: 75.2%
[16]
  viability, T/C: 58.3%
Second compound 0.316 µM, first compound 0.00316 µM
  viability, T/C: 94.5%
Second compound 0.316 µM, first compound 0.01 µM
  viability, T/C: 92.9%
[17]
  viability, T/C: 105%
[18]
  viability, T/C: 77.2%
[19]
  viability, T/C: 54.6%
[20]
  viability, T/C: 49%
Second compound 1 µM, first compound 0.00316 µM
  viability, T/C: 95.6%
Second compound 1 µM, first compound 0.01 µM
  viability, T/C: 87.6%
[21]
  viability, T/C: 81.1%
[22]
  viability, T/C: 56.5%
[23]
  viability, T/C: 45.4%
[24]
  viability, T/C: 52.5%

## CC(Cn1ccc(-c2ccc(C#N)c(Cl)c2)n1)NC(=O)c1cc(C(C)O)[nH]n1 (stereo unspecified) + CC(Nc1ncnc2nc[nH]c12)c1cc2cccc(Cl)c2c(=O)n1-c1ccccc1
Second compound 0.0316 µM
  IC50: > 10 µM
Second compound 0.1 µM
  IC50: > 10 µM
Second compound 0.316 µM
  IC50: > 10 µM
Second compound 1 µM
  IC50: > 10 µM
Second compound 3.16 µM
  IC50: > 10 µM
Second compound 10 µM
  IC50: > 10 µM
[9]
  viability, T/C: 104%
[10]
  viability, T/C: 97%
[11]
  viability, T/C: 98.8%
[12]
  viability, T/C: 99.6%
[25]
  viability, T/C: 105%
[26]
  viability, T/C: 109%
[13]
  viability, T/C: 104%
[14]
  viability, T/C: 102%
[15]
  viability, T/C: 95.3%
[16]
  viability, T/C: 104%
[27]
  viability, T/C: 108%
[28]
  viability, T/C: 97.7%
[17]
  viability, T/C: 103%
[18]
  viability, T/C: 103%
[19]
  viability, T/C: 103%
[20]
  viability, T/C: 104%
[29]
  viability, T/C: 115%
[30]
  viability, T/C: 117%
[21]
  viability, T/C: 102%
[22]
  viability, T/C: 111%
[23]
  viability, T/C: 100%
[24]
  viability, T/C: 115%
[31]
  viability, T/C: 99.6%
[32]
  viability, T/C: 113%
Second compound 3.16 µM, first compound 0.0316 µM
  viability, T/C: 96.3%
Second compound 3.16 µM, first compound 0.1 µM
  viability, T/C: 101%
Second compound 3.16 µM, first compound 0.316 µM
  viability, T/C: 112%
Second compound 3.16 µM, first compound 1 µM
  viability, T/C: 97.1%
Second compound 3.16 µM, first compound 3.16 µM
  viability, T/C: 109%
Second compound 3.16 µM, first compound 10 µM
  viability, T/C: 104%
Second compound 10 µM, first compound 0.0316 µM
  viability, T/C: 93.2%
Second compound 10 µM, first compound 0.1 µM
  viability, T/C: 99%
Second compound 10 µM, first compound 0.316 µM
  viability, T/C: 94.2%
Second compound 10 µM, first compound 1 µM
  viability, T/C: 88.2%
Second compound 10 µM, first compound 3.16 µM
  viability, T/C: 91.8%
Second compound 10 µM, first compound 10 µM
  viability, T/C: 95.6%

## Cn1ncc(Cl)c1-c1cc(C(=O)NC(CN)Cc2cccc(F)c2)sc1Cl (stereo unspecified) + COc1c(OCCCN2CCOCC2)ccc2c3n(c(=NC(=O)c4cnc(N)nc4)nc12)CCN3
Second compound 0.00316 µM
  IC50: 9.34 µM
Second compound 0.01 µM
  IC50: > 10 µM
Second compound 0.0316 µM
  IC50: 4.16 µM
Second compound 0.1 µM
  IC50: 2.59 µM
Second compound 0.316 µM
  IC50: 0.455 µM
Second compound 1 µM
  IC50: < 0.0316 µM
[1]
  viability, T/C: 106%
[2]
  viability, T/C: 96.6%
[3]
  viability, T/C: 92%
[4]
  viability, T/C: 74.8%
Second compound 0.00316 µM, first compound 3.16 µM
  viability, T/C: 68.5%
Second compound 0.00316 µM, first compound 10 µM
  viability, T/C: 47.2%
[5]
  viability, T/C: 97.6%
[6]
  viability, T/C: 99.3%
[7]
  viability, T/C: 95%
[8]
  viability, T/C: 71.1%
Second compound 0.01 µM, first compound 3.16 µM
  viability, T/C: 57.3%
Second compound 0.01 µM, first compound 10 µM
  viability, T/C: 48.6%
[9]
  viability, T/C: 94.2%
[10]
  viability, T/C: 96.4%
[11]
  viability, T/C: 83.6%
[12]
  viability, T/C: 82.5%
[25]
  viability, T/C: 52.8%
[26]
  viability, T/C: 37.2%
[13]
  viability, T/C: 78.8%
[14]
  viability, T/C: 80.5%
[15]
  viability, T/C: 75.4%
[16]
  viability, T/C: 60.9%
[27]
  viability, T/C: 48.8%
[28]
  viability, T/C: 33%
[17]
  viability, T/C: 54.2%
[18]
  viability, T/C: 54.5%
[19]
  viability, T/C: 51.5%
[20]
  viability, T/C: 46%
[29]
  viability, T/C: 39.9%
[30]
  viability, T/C: 25.9%
[21]
  viability, T/C: 32.4%
[22]
  viability, T/C: 26.8%
[23]
  viability, T/C: 27.8%
[24]
  viability, T/C: 32.2%
[31]
  viability, T/C: 29.7%
[32]
  viability, T/C: 21.7%
